Test results published in ChEMBL document CHEMBL5357018, “Discovery of Malarial Threonyl tRNA Synthetase Inhibitors by Screening of a Focused Fragment Library” (ACS Med Chem Lett, 2024).

What follows are molecules tested against T1, threonine--tRNA ligase (Plasmodium falciparum, UniProt Q8IIA4).
T1 sequence (Q8IIA4 whole entry): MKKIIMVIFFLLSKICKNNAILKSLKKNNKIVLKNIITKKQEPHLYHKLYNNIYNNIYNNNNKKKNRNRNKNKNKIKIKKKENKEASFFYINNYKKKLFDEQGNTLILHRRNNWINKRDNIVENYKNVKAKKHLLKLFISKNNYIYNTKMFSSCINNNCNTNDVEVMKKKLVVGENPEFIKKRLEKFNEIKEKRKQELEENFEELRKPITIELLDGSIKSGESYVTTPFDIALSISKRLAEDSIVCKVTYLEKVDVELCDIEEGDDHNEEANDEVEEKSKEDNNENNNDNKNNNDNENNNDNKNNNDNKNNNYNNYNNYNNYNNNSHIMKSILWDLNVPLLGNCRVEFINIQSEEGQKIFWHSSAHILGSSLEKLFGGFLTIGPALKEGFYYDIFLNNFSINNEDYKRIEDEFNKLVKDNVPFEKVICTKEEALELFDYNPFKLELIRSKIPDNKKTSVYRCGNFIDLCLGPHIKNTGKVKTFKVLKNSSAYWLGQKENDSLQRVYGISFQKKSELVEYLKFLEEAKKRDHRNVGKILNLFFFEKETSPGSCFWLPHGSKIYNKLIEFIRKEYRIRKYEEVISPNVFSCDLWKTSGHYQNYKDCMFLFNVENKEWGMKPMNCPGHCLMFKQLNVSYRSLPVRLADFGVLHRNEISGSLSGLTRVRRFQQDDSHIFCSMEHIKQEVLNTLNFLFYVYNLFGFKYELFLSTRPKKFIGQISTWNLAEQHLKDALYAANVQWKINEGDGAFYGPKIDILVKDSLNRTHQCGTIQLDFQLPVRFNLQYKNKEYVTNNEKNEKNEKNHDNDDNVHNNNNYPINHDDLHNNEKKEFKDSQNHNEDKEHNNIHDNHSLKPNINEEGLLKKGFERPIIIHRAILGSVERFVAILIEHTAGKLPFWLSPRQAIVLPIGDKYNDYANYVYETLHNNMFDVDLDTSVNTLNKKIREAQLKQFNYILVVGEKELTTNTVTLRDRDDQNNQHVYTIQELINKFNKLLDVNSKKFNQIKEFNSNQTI
Description: Inhibition of 6xHis-tag recombinant Plasmodium falciparum threonyl tRNA synthetase expressed in Escherichia using L-threonine and total tRNA by luminescence based assay

Which IC50 does the source give for `C[C@@H](O)[C@H](N)C(=O)NS(=O)(=O)Oc1cccc2ccccc12` here?
Its IC50 is 36000 nM.

With `C[C@@H](O)[C@H](N)C(=O)NS(=O)(=O)Oc1ccc2ccccc2c1` as the molecule, how does the IC50 read?
Its IC50 is 30000 nM.

Which IC50 does the source give for `C[C@@H](O)[C@H](N)C(=O)NS(=O)(=O)Oc1ccccc1` here?
Its IC50 is 51000 nM.

For `C[C@@H](O)[C@H](N)C(=O)NS(=O)(=O)Oc1ccc(-c2cc(N)ncn2)cc1`, which IC50 is on record?
The IC50 was 800 nM.

`C[C@@H](O)[C@H](N)C(=O)NS(=O)(=O)c1nc2cc(-c3cc(N)ncn3)ccc2s1` was tested. Which IC50 did it give?
Its IC50 is 100 nM.

Which IC50 does the source give for `C[C@@H](O)[C@H](N)C(=O)NS(=O)(=O)c1nc2ccccc2s1` here?
The IC50 was 71000 nM.

`C[C@@H](O)[C@H](N)C(=O)NS(=O)(=O)Oc1cccc2cccnc12` was tested. Which IC50 did it give?
The IC50 was 55000 nM.

For `C[C@@H](O)[C@H](N)C(=O)NS(=O)(=O)Oc1cccc2nn(-c3cc(N)ncn3)cc12`, which IC50 is on record?
The IC50 was 700 nM.

Biological target: T1, threonine--tRNA ligase
Remark: another data set of the same source

Which Ki does the source give for `C[C@@H]1C[C@H](C)C[C@H](C)[C@@H](O)CC(=O)O[C@H]([C@@H]2CCC[C@H]2C(=O)O)C/C=C/C=C(/C#N)[C@H](O)[C@@H](C)C1` [BORRELIDIN] here?
The Ki was 160 nM.

These molecules were tested against T1, threonine--tRNA ligase (assay: Inhibition of Plasmodium falciparum Threonyl tRNA synthetase).

For `C[C@@H](O)[C@H](N)C(=O)NS(=O)(=O)/C=C/c1ccccc1`, which IC50 is on record?
Its IC50 is 33000 nM.

For `C[C@@H](O)[C@H](N)C(=O)NS(=O)(=O)OC[C@H]1O[C@@H](n2cnc3c(N)ncnc32)[C@H](O)[C@@H]1O`, which IC50 is on record?
The IC50 was 160 nM.

For `C[C@@H]1C[C@H](C)C[C@H](C)[C@@H](O)CC(=O)O[C@H]([C@@H]2CCC[C@H]2C(=O)O)C/C=C/C=C(/C#N)[C@H](O)[C@@H](C)C1` [BORRELIDIN], which IC50 is on record?
The IC50 was 43 nM.

For `C[C@@H](O)[C@H](N)C(=O)NS(=O)(=O)/C=C/c1cccc(-c2cc(N)ncn2)c1`, which IC50 is on record?
Its IC50 is 57 nM.

`C[C@@H](O)[C@H](N)C(=O)NP(=O)(O)OC[C@@H]1C[C@H](O)[C@H](n2cnc3c(N)ncnc32)O1` was tested. Which IC50 did it give?
Its IC50 is 440 nM.
